We go through 10 molecules from patent publication US11478451B1, “Macrocyclic chlorine substituted indole derivatives” (Bayer Aktiengesellschaft, priority 2017, dated 2022).

The subject of data set [1] is SUDHL10 cells. Nature of the data set: Induction of cytotoxicity (CellTiter-Glo, 5 h), SUDHL10. Conditions: SUDHL10, 5 h. (In general: ATP-based viability assays read luminescence as a measure of living cells.)
For data set [2], the system named is SUDHL5 cells. Kind of data set: Induction of caspase-3/7 activity (Caspase-Glo 3/7), SUDHL5. It counts as cell-based. Conditions: EC50, median, SUDHL5, 3 h treatment. A digest of the protocol: (§1)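 Caspase-Glo 3/7 luminescence after 3 h compound treatment, 37 °C, humidified; medium-only background subtracted; rim wells excluded.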
The next data set relates to AMO-1 cells. Nature of the data set: Antiproliferation assay (CellTiter-Glo, 72 h), AMO-1. Format: cell-based. The note with it: IC50, median, AMO-1, 72 h, read-out: Antiproli AMO-1 [M] median. A digest of the protocol:
(§2)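 CellTiter-Glo luminescence readout; 72 h compound exposure, 37 °C, humidified; rim wells excluded; time-zero reference plate plated in parallel and read identically.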

The subject of data set [3] is SUDHL5 cells. Kind of data set: Induction of cytotoxicity (CellTiter-Glo, 5 h), SUDHL5. The note with it: SUDHL5, 5 h.
Data set [4] concerns SUDHL10 cells. Kind of data set: Induction of caspase-3/7 activity (Caspase-Glo 3/7), SUDHL10. It counts as cell-based. The note with it: EC50, median, SUDHL10, 3 h treatment. In outline: as §1
The subject of the next data set is HMC-1-8 cells. Nature of the data set: Antiproliferation assay (CellTiter-Glo, 72 h), HMC-1-8. Format: cell-based. The note with it: IC50, median, HMC-1-8, 72 h, read-out: Antiproli HMC-1-8 [M] median. The protocol: Assessment of the Anti-Proliferative Effect of Compounds in Different Cell Lines
The impact of compounds on the proliferation of different cell lines was assessed using the CellTiter-Glo® Luminescent Cell Viability reagent from Promega (G7573).
In parallel, cells were plated in a reference (day 0) plate for time zero determination.
Rim wells were excluded. The cells were incubated for 72 h hours in a humidified incubator at 37° C. The day 0 plate was measured by adding 30 μL/well of CTG solution (CellTiter-Glo® Luminescent Cell Viability reagent, Promega G7573) to time zero wells in the reference plate followed by a 10 minutes incubation and luminescence reading at 0.1 ms. using the PHERAstar FS microplate reader (BMG Labtech).
After 72 h incubation, the treated plates were measured in the same way as the day 0 plate mentioned above.

The subject of data set [5] is SUDHL5 cells. Nature of the data set: Antiproliferation assay (CellTiter-Glo, 72 h), SUDHL5. It counts as cell-based. The note with it: IC50, median, SUDHL5, 72 h, read-out: Antiproli SUDHL5 [M] (median). A digest of the protocol: as §2
[6] abbreviates: Homo sapiens, SU-DHL10, 5 h, read-out: Cytotox SUDHL10 [M] (median), IC50, median.
Setting [7] is: Homo sapiens, SU-DHL-5, 5 h, read-out: Cytotox SUDHL5 [M] (median), IC50, median.
Where [8] appears, read: read-out: Cytotox SUDHL10 [M] (median), IC50, median.
The mark [9] stands for this setting: read-out: Cytotox SUDHL5 [M] (median), IC50, median.

Where a name gives a salt, the structure may show the parent alone. Read-outs that look alike come from different tables or passages of the source.

As to `Cc1c2c(nn1CCCN1CCN(C)CC1)COCCCCn1c(C(=O)O)c(CCCOc3cccc4ccccc34)c3ccc(Cl)c-2c31` (racemic) [Example 48, (rac)-4-chloro-3-methyl-2-[3-(4-methylpiperazin-1-yl)propyl]-7-{3-[(naphthalen-1-yl)oxy]propyl}-2,10,11,12,13,15-hexahydropyrazolo[4′,3′:9,10][1,6]oxazacycloundecino[8,7,6-hi]indole-8-carboxylic acid], the IC50 in the data set on SUDHL10 cells [1] (setting [6]) worked out at 3e-07 M; in the data set with AMO-1 cells (Homo sapiens, AMO1, 72 h), 1.8e-07 M; in the data set with SUDHL5 cells [3] (setting [7]) it was 1.8e-07 M; in the data set on HMC-1-8 cells (72 h), 8.2e-07 M; in the data set on SUDHL5 cells [5] (Homo sapiens, SU-DHL-5, 72 h), 2e-07 M. Moreover, the half-maximal effective concentration (EC50) with SUDHL5 cells [2] (Homo sapiens, SU-DHL-5, 3 h) turned out to be 160 nM; in the data set on SUDHL10 cells [4] (Homo sapiens, SU-DHL10, 3 h), 400 nM.

Take `Cc1c2c(nn1C)COCC(F)(F)CCn1c(C(=O)O)c(CCCOc3cccc4ccccc34)c3ccc(Cl)c-2c31` (racemic) [Example 55, (rac)-4-chloro-12,12-difluoro-2,3-dimethyl-7-{3-[(naphthalen-1-yl)oxy]propyl}-2,10,11,12,13,15-hexahydropyrazolo[4′,3′:9,10][1,6]oxazacycloundecino[8,7,6-hi]indole-8-carboxylic acid]: the IC50 came out at 7.4e-07 M in the data set on SUDHL10 cells [1] (setting [8]); 1.4e-06 M in the data set with AMO-1 cells; 6.7e-07 M with SUDHL5 cells [3] (setting [9]); 2.2e-06 M in the data set on HMC-1-8 cells (72 h); 4.3e-07 M in the data set on SUDHL5 cells [5]. The EC50 in the data set with SUDHL5 cells [2] turned out to be 600 nM; in the data set on SUDHL10 cells [4], 520 nM.

As for `Cc1c2c(nn1C)CN(CC(F)(F)F)CCCCn1c(C(=O)O)c(CCCOc3cccc4cc(F)ccc34)c3ccc(Cl)c-2c31` (racemic) [Example 58, (rac)-4-chloro-7-{3-[(6-fluoronaphthalen-1-yl)oxy]propyl}-2,3-dimethyl-14-(2,2,2-trifluoroethyl)-10,11,12,13,14,15-hexahydro-2H-pyrazolo[3′,4′:8,9][1,6]diazacycloundecino[10,11,1-hi]indole-8-carboxylic acid], the IC50 with SUDHL10 cells [1] (setting [6]) was found to be 2e-06 M; with AMO-1 cells (Homo sapiens, AMO1, 72 h) it was 1.7e-06 M; in the data set with SUDHL5 cells [3] (setting [7]) it was 8.4e-07 M; with HMC-1-8 cells (72 h) it was 5.8e-06 M; in the data set on SUDHL5 cells [5] (Homo sapiens, SU-DHL-5, 72 h) it was 6.2e-07 M. Besides, the 50% effective concentration (EC50) in the data set with SUDHL5 cells [2] (Homo sapiens, SU-DHL-5, 3 h) is 510 nM; in the data set with SUDHL10 cells [4] (Homo sapiens, SU-DHL10, 3 h) it was 1500 nM.

Regarding `Cc1c2c(nn1C)COCCC(F)(F)Cn1c(C(=O)O)c(CCCOc3cccc4ccccc34)c3ccc(Cl)c-2c31` (racemic) [Example 68, (rac)-4-chloro-11,11-difluoro-2,3-dimethyl-7-[3-(1-naphthyloxy)propyl]-2,10,11,12,13,15-hexahydropyrazolo[4′,3′:9,10][1,6]oxazacycloundecino[8,7,6-hi]indole-8-carboxylic acid], the IC50 in the data set with SUDHL10 cells [1] (setting [6]) stood at 3.3e-06 M; in the data set with AMO-1 cells (Homo sapiens, AMO1, 72 h), 2.6e-06 M; with HMC-1-8 cells (72 h), 7.9e-06 M; with SUDHL5 cells [5] (Homo sapiens, SU-DHL-5, 72 h), 2.6e-06 M. Besides, the EC50 in the data set on SUDHL5 cells [2] (Homo sapiens, SU-DHL-5, 3 h) was determined as 1400 nM; in the data set with SUDHL10 cells [4] (Homo sapiens, SU-DHL10, 3 h), 3100 nM.

With `CCc1c2c(nn1C)COCCC(F)(F)Cn1c(C(=O)O)c(CCCOc3cccc4cc(F)ccc34)c3ccc(Cl)c-2c31` (racemic) [Example 96, (rac)-4-chloro-3-ethyl-11,11-difluoro-7-{3-[(6-fluoronaphthalen-1-yl)oxy]propyl}-2-methyl-2,10,11,12,13,15-hexahydropyrazolo[4′,3′:9,10][1,6]oxazacycloundecino[8,7,6-hi]indole-8-carboxylic acid], the IC50 with SUDHL10 cells [1] (setting [6]) was found to be 3.5e-07 M; in the data set on AMO-1 cells (Homo sapiens, AMO1, 72 h), 4.9e-07 M; in the data set on SUDHL5 cells [3] (setting [7]) it was 4.7e-07 M; with HMC-1-8 cells (72 h), 5.3e-06 M; with SUDHL5 cells [5] (Homo sapiens, SU-DHL-5, 72 h), 3.1e-07 M. Moreover, the EC50 in the data set on SUDHL5 cells [2] (Homo sapiens, SU-DHL-5, 3 h) amounted to 480 nM; in the data set on SUDHL10 cells [4] (Homo sapiens, SU-DHL10, 3 h), 210 nM.

Consider `CCc1c2c(nn1C)COCC1(CCn3c(C(=O)O)c(CCCOc4cccc5cc(F)ccc45)c4ccc(Cl)c-2c43)CC1` (racemic) [Example 109, (rac)-4′-chloro-3′-ethyl-7′-{3-[(6-fluoronaphthalen-1-yl)oxy]propyl}-2′-methyl-2′,10′,11′,15′-tetrahydro-13′H-spiro[cyclopropane-1,12′-pyrazolo[4′,3′:9,10][1,6]oxazacycloundecino[8,7,6-hi]indole]-8′-carboxylic acid], for which the IC50 with SUDHL10 cells [1] (setting [6]) worked out at 2.8e-07 M; in the data set on SUDHL5 cells [3] (setting [7]), 5.9e-07 M; in the data set with HMC-1-8 cells (72 h), 4.3e-06 M; in the data set with SUDHL5 cells [5] (Homo sapiens, SU-DHL-5, 72 h), 5.5e-07 M. For the same molecule, the EC50 with SUDHL5 cells [2] (Homo sapiens, SU-DHL-5, 3 h) worked out at 440 nM; with SUDHL10 cells [4] (Homo sapiens, SU-DHL10, 3 h), 290 nM.

For the molecule `CCc1c2c(nn1C)CCCN(C)CCn1c(C(=O)O)c(CCCOc3cccc4cc(F)ccc34)c3ccc(Cl)c-2c31` (racemic) [Example 115, (rac)-4-chloro-3-ethyl-7-{3-[(6-fluoronaphthalen-1-yl)oxy]propyl}-2,12-dimethyl-10,11,12,13,14,15-hexahydro-2H-pyrazolo[3′,4′:8,9][1,4]diazacycloundecino[10,11,1-hi]indole-8-carboxylic acid], the IC50 is 1.4e-06 M with SUDHL10 cells [1] (setting [6]); 9.1e-07 M in the data set with AMO-1 cells (Homo sapiens, AMO1, 72 h); 4.4e-07 M in the data set on SUDHL5 cells [3] (setting [7]); 8e-06 M in the data set with HMC-1-8 cells (72 h); 7.8e-07 M in the data set on SUDHL5 cells [5] (Homo sapiens, SU-DHL-5, 72 h). Besides, the EC50 in the data set on SUDHL5 cells [2] (Homo sapiens, SU-DHL-5, 3 h) came out at 160 nM; in the data set on SUDHL10 cells [4] (Homo sapiens, SU-DHL10, 3 h) it was 1400 nM.

For the molecule `CCc1c2c(nn1C)CCCN(CC(F)F)CCn1c(C(=O)O)c(CCCOc3cccc4cc(F)ccc34)c3ccc(Cl)c-2c31` (racemic) [Example 118, (rac)-4-chloro-12-(2,2-difluoroethyl)-3-ethyl-7-{3-[(6-fluoro-1-naphthyl)oxy]propyl}-2-methyl-10,11,12,13,14,15-hexahydro-2H-pyrazolo[3′,4′:8,9][1,4]diazacycloundecino[10,11,1-hi]indole-8-carboxylic acid], the IC50 in the data set on SUDHL10 cells [1] (setting [8]) stood at 6.4e-07 M; in the data set with AMO-1 cells (Homo sapiens, AMO1, 72 h) it was 5.1e-07 M; in the data set on SUDHL5 cells [3] (setting [9]), 5.5e-07 M; with HMC-1-8 cells it was 2.5e-06 M; in the data set with SUDHL5 cells [5], 5.5e-07 M. The figures for the EC50 in the data set with SUDHL5 cells [2] and in the data set with SUDHL10 cells [4] were 330 nM and 510 nM, respectively.

Turning to `CCc1c2c(nn1C)COCC(F)(F)CCn1c(C(=O)O)c(CCCOc3cccc4cc(F)ccc34)c3ccc(Cl)c-2c31` (single isomer, unassigned) [Example 86, (+)-4-chloro-3-ethyl-12,12-difluoro-7-{3-[(6-fluoronaphthalen-1-yl)oxy]propyl}-2-methyl-2,10,11,12,13,15-hexahydropyrazolo[4′,3′:9,10][1,6]oxazacycloundecino[8,7,6-hi]indole-8-carboxylic acid], the IC50 in the data set with SUDHL10 cells [1] (read-out: Cytotox SUDHL10 [M] (median), IC50, median, listed as 086) was determined as 9.7e-07 M; with SUDHL5 cells [3] (read-out: Cytotox SUDHL5 [M] (median), IC50, median, listed as 086), 6.3e-07 M; with HMC-1-8 cells (listed as 086) it was 6.4e-06 M; in the data set on SUDHL5 cells [5] (listed as 086) it was 9.3e-07 M. In addition, the half-maximal effective concentration (EC50) is 470 nM in the data set on SUDHL5 cells [2] (listed as 086) and 620 nM with SUDHL10 cells [4] (listed as 086).

Turning to `CCc1c2c(nn1C)COCC1(CCn3c(C(=O)O)c(CCCOc4cccc5cc(F)ccc45)c4ccc(Cl)c-2c43)CC1` [Example 110, (−)-4′-chloro-3′-ethyl-7′-{3-[(6-fluoronaphthalen-1-yl)oxy]propyl}-2′-methyl-2′,10′,11′,15′-tetrahydro-13′H-spiro[cyclopropane-1,12′-pyrazolo[4′,3′:9,10][1,6]oxazacycloundecino[8,7,6-hi]indole]-8′-carboxylic acid-N-ethylethanamine salt], the IC50 worked out at 2.8e-07 M with SUDHL10 cells [1] (setting [8]); 3.5e-07 M in the data set with AMO-1 cells; 1.4e-06 M in the data set with HMC-1-8 cells (72 h); 2.1e-07 M in the data set with SUDHL5 cells [5] (Homo sapiens, SU-DHL-5, 72 h). In addition, the EC50 in the data set on SUDHL5 cells [2] was found to be 120 nM; in the data set with SUDHL10 cells [4], 160 nM.

As a reminder, the EC50 is the concentration at which the effect is half-maximal.
